According to publication PMC8780741, “Integration of In Silico, In Vitro and In Situ Tools for the Preformulation and Characterization of a Novel Cardio-Neuroprotective Compound during the Early Stages of Drug Development” (Pharmaceutics, 2022):
Where two headings read alike, the source gives them in different places.

Columns and labels:
[1] = Dissociation constant (pKa) by UV-spectrophotometric method; assay type: physicochemical; settings: aqueous buffer solutions
Experimental: The pH measurements were performed using a sensiON™ (PH31) pH meter. Standard solutions of JM-20 ([…] were prepared adding 0.2 mL of the stock solution in 9.8 mL of each buffer. UV-VIS spectra were recorded on a UV-Vis Spectrophotometer (Thermo Fisher GENESYS™ 10S, Shanghai, China) between 200 and 400 nm (2 nm of resolution). All spectrophotometric data were processed in Microsoft Excel (2018).
The experimental pKa was determined using the spectrophotometric method proposed by Salgado et al.. The absorbance spectra of the JM-20 were acquired at different pH levels. The wavelengths of maximum absorbance were determined at each pH. Using a plot of observed absorbance versus pH at these analytical wavelengths (262, 316 and 355 nm), the pKa values were calculated. To determine these points, the linear equations of the two points closest to the crossing at each curve were solved. The whole procedure was carried out in triplicate and at room temperature (23 ± 2 °C).

[2] = Provisional BCS classification; set-up: key: drugs with high solubility/high permeability (Class 1); drugs with low solubility/high permeability (Class 2); drugs with high solubility/low permeability (Class 3); drugs with low solubility/low permeability (Class 4)
Description: The Biopharmaceutics Classification System (BCS) is a widely used scientific framework for waiver of in vivo bioequivalence studies, as well as for decision-making in drug discovery and development. This tool classifies drug substances according to solubility/dosage and permeability values as follows: drugs with high solubility/high permeability (Class 1), drugs with low solubility/high permeability (Class 2), drugs with high solubility/low permeability (Class 3) and drugs with low solubility/low permeability (Class 4). BCS has proven to be a very important tool for the identification of compounds whose solubility and absorption characteristics may be sensitive to physiological and formulation variables, allowing early optimization in the preformulation stages from the knowledge of the physicochemical properties of the active pharmaceutical ingredient (API). In this sense, it is evident that new compounds with low permeability and solubility/dissolution will have low and highly variable oral bioavailability, which may limit the chances of developing a clinically useful product.
Different provisional biopharmaceutical classification systems have been described in the literature. They mainly use alternative methodologies to predict intestinal permeability. Following the proposal of Kasim et al., JM-20 is a BCS Class 2, based on the aqueous solubility value at room temperature and in silico partition coefficients (log P and ClogP). JM-20 is also classified as BCS class 2 compound by the method proposed by Pham-The et al. where a provisional biopharmaceutical classification was developed based on solubility data (dose number, Do) and predicted or measured permeability in Caco-2 cells. At the same time, permeability values of JM-20 obtained with in vitro cell lines and in situ perfusion in rat were considered for the biopharmaceutical classification of this compound.

[3] = Human oral fraction absorbed estimated from rat intestinal permeability; settings: calculated from rat permeability values in all segments (whole small intestine)
Description: The permeability values obtained in the different intestinal sections (See Table 4) corroborate the results obtained in the cell lines. […] This supports that if a compound has a high absorbed dose fraction, it will have a high-permeability, not necessarily in the jejunum, but somewhere along the relevant intestinal absortive regions. Correlations between permeability values in the rat small intestine (whole or segments) obtained by Doluisio’s method and their correlation with the orally absorbed fraction in humans were previously published. In fact, Fabs can be calculated considering the permeability values in all segments (whole small intestine) and the estimated oral absorbed fraction was 85.12%. According to this property, the drug may be a good candidate to be formulated for oral administration.

## CCOC(=O)C1=C(C)NC2=C(C=Nc3ccccc3N2)C1c1ccccc1[N+](=O)[O-] (stereo not drawn) [JM-20, 3-ethoxycarbonyl-2-methyl-4-(2-nitrophenyl)-4,11-dihydro-1H-pyrido [2,3-b][1,5] benzodiazepine]
[1]; pH 2 to 12, UV-spectrophotometric, 23 °C, ionic strength approximately 0.1 M, read-out: pKa1 (base)
  pKa: 5.48 ± 0.19
[1]; pH 2 to 12, UV-spectrophotometric, 23 °C, ionic strength approximately 0.1 M, read-out: pKa2 (acid)
  pKa: 10.5 ± 0.17
[1]; pH 2 to 12, measured pKa transformed to 37 °C (estimated), read-out: pKa1 at 37 °C
  pKa: 5.54
[1]; pH 2 to 12, measured pKa transformed to 37 °C (estimated), read-out: pKa2 at 37 °C
  pKa: 10.3
[2]; BCS class from dose number and Caco-2 permeability
  BCSCaco-2: 2
[2]; BCS class from dose number and MDCK permeability
  BCSMDCK: 2
[2]; BCS class from dose number and rat in situ permeability
  BCSrat: 2
[2]; overall provisional BCS class
  BCSGlobal: 2
[3]
  Estimated oral absorbed fraction (Fabs) in humans: 85.12%
